# Data: patent US20240091254A1, “WNT AGONISTS FOR PREVENTION OF CANCER” (ACADEMISH MEDISCH CENTRUM, priority 2021, published 2024)
# B1: Notum: Wnt antagonist Palmitoleoyl-Protein Carboxylesterase, as overexpression CM or recombinant protein (protein, UniProt Q6P988 20-496, looked up)
# Palmitoleoyl-protein …: SEGRKTWRRRGQQPPPPPRTEAAPAAGQPVESFPLDFTAVEGNMDSFMAQVKSLAQSLYPCSAQQLNEDLRLHLLLNTSVTCNDGSPAGYYLKESRGSRRWLLFLEGGWYCFNRENCDSRYDTMRRLMSSRDWPRTRTGTGILSSQPEENPYWWNANMVFIPYCSSDVWSGASSKSEKNEYAFMGALIIQEVVRELLGRGLSGAKVLLLAGSSAGGTGVLLNVDRVAEQLEKLGYPAIQVRGLADSGWFLDNKQYRHTDCVDTITCAPTEAIRRGIRYWNGVVPERCRRQFQEGEEWNCFFGYKVYPTLRCPVFVVQWLFDEAQLTVDNVHLTGQPVQEGLRLYIQNLGRELRHTLKDVPASFAPACLSHEIIIRSHWTDVQVKGTSLPRALHCWDRSLHDSHKASKTPLKGCPVHLVDSCPWPHCNPSCPTVRDQFTGQEMNVAQFLMHMGFDMQTVAQPQGLEPSELLGMLSNGS
# B2: Dkk2: Wnt antagonist Dickkopf-related protein 2, as overexpression CM or recombinant protein (protein, UniProt Q9UBU2 34-259, looked up)
# Dickkopf-related protein 2: KLNSIKSSLGGETPGQAANRSAGMYQGLAFGGSKKGKNLGQAYPCSSDKECEVGRYCHSPHQGSSACMVCRRKKKRCHRDGMCCPSTRCNNGICIPVTESILTPHIPALDGTRHRDRNHGHYSNHDLGWQNLGRPHTKMSHIKGHEGDPCLRSSDCIEGFCCARHFWTKICKPVLHQGEVCTKQRKKGSHGLEIFQRCDCAKGLSCKVWKDATYSSKARLHVCQKI
# Key:
# WT organoids = assay: Murine WT intestinal organoids incubated with conditioned medium or recombinant Wnt antagonists (expansion, clonogenicity); assay type: cell-based, mouse; conditions: for Expansion and clonogenicity of WT organoids: overexpression CM or recombinant protein: NOTUM 2 μg/mL, WIF1 5 μg/mL, DKK2 1 μg/mL
# Description: Murine intestinal crypts were isolated from Lgr5-EGFP-IRES-Cre^ERT2, Lgr5-EGFP-IRES-Cre^ERT2;Ape/or Villin-Cre^ERT2;Apc^fl/fl mice as described by Sato et al.^35. In short, intestines were removed from the mouse and washed thoroughly with ice-cold PBS. Next, the intestine was opened longitudinally and the villi were gently scraped off by a glass cover slide. The intestine was cut into pieces of 5×5 mm and incubated in 2 mM EDTA solution for 30 min. at 4° C. After removal of the EDTA, the crypts were resuspended in ice-cold 1% FCS in PBS by vigorously shaking the tube and passing the supernatant through a 70 µm strainer. Isolated crypts were resuspended in Matrigel® (Corning) and seeded in pre-heated 24-well plates, supplemented with basal organoid medium consisting of advanced DMEM/F12 medium (Gibco) containing 100× N2 and 50× B27 supplements, 100× Glutamax, 5 mM HEPES, 1 mM N-acetyl-L-cysteine (Sigma), and 100× antibiotic/antimycotic (all Gibco). The basal organoid medium was freshly supplemented with the following growth factors: mouse EGF 50 ng/ml (TEBU-BIO), R-spondin (conditioned medium), Noggin (conditioned medium). The first two days after crypt isolation CHIR99021 (Axon Medchem) and ROCK inhibitor (Sigma) was added to the medium. Ctnnb1^S organoids expressing a constitutive active variant of β-catenin were generated as described by Adam et al.^36. For in vitro recombination of loxP flanked alleles, 1 μM 40H-Tamoxifen (Sigma) was added to the medium. Recombination of the Apc gene was validated by digital droplet PCR (Bio-Rad) using EvaGreen® Supermix (Bio-Rad). Lgr5-EGFP-IRES-Cre^ERT2 organoids, referred to as wild type (WT) organoids, were stably transduced with a red fluorescent mCherry construct (LeGO-C2, Addgene #27399). The in vitro recombined Lgr5-EGFP-IRES-Cre^ERT2;Apc^fl/fl, referred to as Apc^−/−, were stably transduced with a green fluorescent Venus construct (LeGO-V2, Addgene #27340). During competition assays, organoids were plated in equal numbers in 24-well plates and full wells were scanned over time by the EVOS FL Cell Imaging System (Thermo Scientific). Conditioned medium (CM) was taken from 2-3 day old WT or Apc^−/− organoid cultures and freshly supplemented with growth factors R-spondin, Noggin and mEGF. During the competition assays the medium (normal and conditioned) was replaced every other day to minimize effects of medium depletion. To assess the effect of medium depletion, CM was 10× concentrated using 10 kDa Amicon® centrifugal filters (Millipore) and added to fresh ENR medium as 1:10. […] Recombinant proteins NOTUM (2 μg/mL, R&D, 9150-NO-050), WIF1 (5 μg/mL, R&D, 135-WF-050) and DKK2 (1 μg/mL, R&D, 2435-DKB-010) were freshly added to the culture medium, medium was refreshed every other day.
# [1] = system: Wnt pathway (TOP-GFP reporter); assay: TOP-GFP Wnt reporter assay in MEFs; assay type: cell-based, mouse
# Description: Mouse embryonic fibroblasts (MEFs, ATCC) and HEK293T (ATCC) cells were both cultured in Dulbecco's Modified Eagle's Medium (DMEM) supplemented with 10% fetal calf serum (FCS), 1% Glutamine, and antibiotic penicillin and streptomycin. Cells were maintained at 37° C. in humidified air containing 5% CO2. All cell lines were routinely checked for mycoplasm contamination, no cell line authentication was performed.
# Mouse embryonic fibroblasts (MEFs) were cultured in Dulbecco's Modified Eagle's Medium (DMEM) supplemented with 10% fetal calf serum (FCS), 1% Glutamine, and antibiotic penicillin and streptomycin. MEFs were stably transduced with Wnt reporter TOP-GFP (Addgene plasmid #35491). For TOP-GFP assays, cells were stimulated with Wnt3A conditioned medium for 24 hours after which GFP positivity was measured by flow cytometry.
molecule,measurement,setting,value
"Wif1: Wnt antagonist Wnt inhibitory factor 1, as overexpression CM or recombinant protein",Expansion and clonogenicity of WT organoids,WT organoids,ability to reduce expansion and clonogenicity of WT organoids
"O=C([O-])[O-].[Li+].[Li+] [Li2CO3, lithium carbonate]","Wnt signalling activation in Wnt reporter assay, Li2CO3 compared with LiCl",[1]; comparable concentrations (5 or 10 mM),activated the same amount of Wnt signalling
Cn1c(=O)c2c(ncn2C)n(C)c1=O [caffeine],Rescue of Notum-mediated inhibition of Wnt signalling in Wnt reporter assay,[1]; 200 μM caffeine,can rescue inhibition of Wnt singalling in vitro
same,Clonogenic capacity of wild type intestinal organoids with Apc-mutant CM,"WT organoids; Apc-mutant CM containing Notum, 200 μM caffeine",rescue in clonogenic capacity
same,"Clonogenic capacity of organoids with CM of Apc-mutant, Notum KO organoids","WT organoids; Apc-mutant Notum KO CM, 200 μM caffeine",no effect
Cc1c[nH]c(-c2cnc(NCCNc3ccc(C#N)cn3)nc2-c2ccc(Cl)cc2Cl)n1 [CHIR99021],Effect on Apc-/- CM reduction of Wnt3a mediated Wnt activation (TOP-GFP),"[1]; MEFs, TOP-GFP reporter, 2.5 μM CHIR99021",completely abrogated this effect
same,Resistance to Apc-/- CM induced reduction in proliferation and clonogenicity,"WT organoids; WT organoids, Apc-/- CM, 2.5 μM CHIR",resistant to the Apc^−/− CM induced reduction in proliferation and clonogenicity
B1,Expansion and clonogenicity of WT organoids,WT organoids,ability to reduce expansion and clonogenicity of WT organoids
B2,Expansion and clonogenicity of WT organoids,WT organoids,ability to reduce expansion and clonogenicity of WT organoids
